Measurements as given in PubChem BioAssay (NCI).
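GI50 = concentration required for 50% inhibition of growth. TGI denotes the concentration required for complete inhibition of growth.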

How the values were obtained:
Test in all cases: NCI tumour cell line growth inhibition, 384-well format
HCT-15 colon = tested on: HCT-15 colon
786-0 renal = tested on: 786-0 renal
NCI-H226 lung = tested on: NCI-H226 lung
HOP-62 NSCLC = tested on: HOP-62 NSCLC
CCRF-CEM leukemia = tested on: CCRF-CEM leukemia
DU-145 prostate = tested on: DU-145 prostate
COLO 205 colon = tested on: COLO 205 colon
SF-539 CNS = tested on: SF-539 CNS
SNB-75 CNS = tested on: SNB-75 CNS
OVCAR-8 ovarian = tested on: OVCAR-8 ovarian
HT29 colon = tested on: HT29 colon
OVCAR-4 ovarian = tested on: OVCAR-4 ovarian
HOP-92 NSCLC = tested on: HOP-92 NSCLC
NCI-H322M lung = tested on: NCI-H322M lung
T-47D breast = tested on: T-47D breast
HCC-2998 colon = tested on: HCC-2998 colon
NCI-H23 lung = tested on: NCI-H23 lung
MDA-MB-435 melanoma = tested on: MDA-MB-435 melanoma
ACHN renal = tested on: ACHN renal
NCI-H460 NSCLC = tested on: NCI-H460 NSCLC
RPMI-8226 leukemia = tested on: RPMI-8226 leukemia
A498 renal = tested on: A498 renal
SF-268 CNS = tested on: SF-268 CNS
A549 NSCLC = tested on: A549 NSCLC
UACC-62 melanoma = tested on: UACC-62 melanoma
UACC-257 melanoma = tested on: UACC-257 melanoma
MCF7 breast = tested on: MCF7 breast
SNB-19 CNS = tested on: SNB-19 CNS
SR leukemia = tested on: SR leukemia
SN12C renal = tested on: SN12C renal
MDA-MB-231 breast = tested on: MDA-MB-231 breast
TK-10 renal = tested on: TK-10 renal
BT-549 breast = tested on: BT-549 breast
M14 melanoma = tested on: M14 melanoma
MDA-MB-468 breast = tested on: MDA-MB-468 breast
PC-3 prostate = tested on: PC-3 prostate
OVCAR-3 ovarian = tested on: OVCAR-3 ovarian
RXF 393 renal = tested on: RXF 393 renal
LOX IMVI melanoma = tested on: LOX IMVI melanoma
HS 578T breast = tested on: HS 578T breast
NCI-H522 lung = tested on: NCI-H522 lung
EKVX NSCLC = tested on: EKVX NSCLC
HL-60(TB) leukemia = tested on: HL-60(TB) leukemia
SK-MEL-28 melanoma = tested on: SK-MEL-28 melanoma
KM12 colon = tested on: KM12 colon
OVCAR-5 ovarian = tested on: OVCAR-5 ovarian
SK-MEL-5 melanoma = tested on: SK-MEL-5 melanoma
MOLT-4 leukemia = tested on: MOLT-4 leukemia
SW-620 colon = tested on: SW-620 colon
U251 glioblastoma = tested on: U251 glioblastoma
CAKI-1 renal = tested on: CAKI-1 renal
NCI/ADR-RES ovarian = tested on: NCI/ADR-RES ovarian
UO-31 renal = tested on: UO-31 renal
MALME-3M melanoma = tested on: MALME-3M melanoma
IGROV1 ovarian = tested on: IGROV1 ovarian
SF-295 CNS = tested on: SF-295 CNS
K-562 leukemia = tested on: K-562 leukemia
SK-OV-3 ovarian = tested on: SK-OV-3 ovarian

For `Cc1ccc(NC(=O)c2ccc(CN3CCN(C)CC3)cc2)cc1Nc1nc(-c2cccnc2)cs1`, the GI50 (HCT-15 colon) was 1.69 µM, the TGI (HCT-15 colon) was 3.2 µM and the GI50 ([…]-0 renal) was 1.79 µM. It also gave a TGI (786-0 renal) of 3.66 µM, a GI50 (NCI-H226 lung) of 3.84 µM and a TGI (NCI-H226 lung) of 15.9 µM. It also gave a GI50 (HOP-62 NSCLC) of 4.31 µM, a TGI (HOP-62 NSCLC) of 15.4 µM and a GI50 (CCRF-CEM leukemia) of 1.54 µM. It also gave a TGI (CCRF-CEM leukemia) of 3.09 µM, a GI50 (DU-145 prostate) of 12 µM and a TGI (DU-145 prostate) of 24.4 µM. The GI50 (COLO 205 colon) was 3.64 µM, the TGI (COLO 205 colon) was 11 µM and the GI50 (SF-539 CNS) was 1.5 µM. For the same molecule, the TGI (SF-539 CNS) was 3.19 µM, the GI50 (SNB-75 CNS) was 3.7 µM and the TGI (SNB-75 CNS) was 12 µM. The GI50 (OVCAR-8 ovarian) was 3.54 µM, the TGI (OVCAR-8 ovarian) was 12.5 µM and the GI50 (HT29 colon) was 1.72 µM. It also gave a TGI (HT29 colon) of 3.32 µM, a GI50 (OVCAR-4 ovarian) of 2.59 µM and a TGI (OVCAR-4 ovarian) of 11.1 µM. The GI50 (HOP-92 NSCLC) was 3.33 µM, the TGI (HOP-92 NSCLC) was 12.2 µM and the GI50 (NCI-H322M lung) was 3.39 µM. The TGI (NCI-H322M lung) was 11.4 µM, the GI50 (T-47D breast) was 1.76 µM and the TGI (T-47D breast) was 5.2 µM. It also gave a GI50 (HCC-2998 colon) of 1.84 µM, a TGI (HCC-2998 colon) of 3.68 µM and a GI50 (NCI-H23 lung) of 2.9 µM. The TGI (NCI-H23 lung) was 11.9 µM, the GI50 (MDA-MB-435 melanoma) was 6.47 µM and the TGI (MDA-MB-435 melanoma) was 18.9 µM. The GI50 (ACHN renal) was 3.31 µM, the TGI (ACHN renal) was 9.96 µM and the GI50 (NCI-H460 NSCLC) was 2.16 µM. The TGI (NCI-H460 NSCLC) was 4.71 µM, the GI50 (RPMI-8226 leukemia) was 1.42 µM and the TGI (RPMI-8226 leukemia) was 2.78 µM. For the same molecule, the GI50 (A498 renal) was 2.42 µM, the TGI (A498 renal) was 5.52 µM and the GI50 (SF-268 CNS) was 4.08 µM. The TGI (SF-268 CNS) was 14 µM, the GI50 (A549 NSCLC) was 5.25 µM and the TGI (A549 NSCLC) was 17.3 µM. The GI50 (UACC-62 melanoma) was 1.75 µM, the TGI (UACC-62 melanoma) was 3.64 µM and the GI50 (UACC-257 melanoma) was 1.82 µM. For the same molecule, the TGI (UACC-257 melanoma) was 3.37 µM, the GI50 (MCF7 breast) was 1.94 µM and the TGI (MCF7 breast) was 5.95 µM. For the same molecule, the GI50 (SNB-19 CNS) was 10.6 µM, the TGI (SNB-19 CNS) was 22.5 µM and the GI50 (SR leukemia) was 1.53 µM. The TGI (SR leukemia) was 2.87 µM, the GI50 (SN12C renal) was 12.7 µM and the TGI (SN12C renal) was 25.3 µM. For the same molecule, the GI50 (MDA-MB-231 breast) was 3.38 µM, the TGI (MDA-MB-231 breast) was 11.7 µM and the GI50 (TK-10 renal) was 12.2 µM. It also gave a TGI (TK-10 renal) of 24.7 µM, a GI50 (BT-549 breast) of 4.12 µM and a TGI (BT-549 breast) of 14.4 µM. For the same molecule, the GI50 (M14 melanoma) was 2.07 µM, the TGI (M14 melanoma) was 4.11 µM and the GI50 (MDA-MB-468 breast) was 1.65 µM. The TGI (MDA-MB-468 breast) was 3.77 µM, the GI50 (PC-3 prostate) was 3.25 µM and the TGI (PC-3 prostate) was 9.72 µM. It also gave a GI50 (OVCAR-3 ovarian) of 2.24 µM, a TGI (OVCAR-3 ovarian) of 5.16 µM and a GI50 (RXF 393 renal) of 1.54 µM. It also gave a TGI (RXF 393 renal) of 2.98 µM, a GI50 (LOX IMVI melanoma) of 1.91 µM and a TGI (LOX IMVI melanoma) of 3.52 µM. For the same molecule, the GI50 (HS 578T breast) was 1.73 µM, the TGI (HS 578T breast) was 3.87 µM and the GI50 (NCI-H522 lung) was 3.83 µM. For the same molecule, the TGI (NCI-H522 lung) was 13.9 µM, the GI50 (EKVX NSCLC) was 4.22 µM and the TGI (EKVX NSCLC) was 15.4 µM. The GI50 (HL-60(TB) leukemia) was 1.74 µM, the TGI (HL-60(TB) leukemia) was 3.16 µM and the GI50 (SK-MEL-28 melanoma) was 1.91 µM. The TGI (SK-MEL-28 melanoma) was 3.42 µM, the GI50 (KM12 colon) was 3.11 µM and the TGI (KM12 colon) was 10.3 µM. For the same molecule, the GI50 (OVCAR-5 ovarian) was 3.4 µM, the TGI (OVCAR-5 ovarian) was 9.15 µM and the GI50 (SK-MEL-5 melanoma) was 1.55 µM. It also gave a TGI (SK-MEL-5 melanoma) of 3.15 µM, a GI50 (MOLT-4 leukemia) of 1.55 µM and a TGI (MOLT-4 leukemia) of 2.95 µM. For the same molecule, the GI50 (SW-620 colon) was 2.17 µM, the TGI (SW-620 colon) was 5.13 µM and the GI50 (U251 glioblastoma) was 2.36 µM. It also gave a TGI (U251 glioblastoma) of 5.39 µM, a GI50 (CAKI-1 renal) of 3.9 µM and a TGI (CAKI-1 renal) of 13 µM. It also gave a GI50 (NCI/ADR-RES ovarian) of 5.47 µM, a TGI (NCI/ADR-RES ovarian) of 16.6 µM and a GI50 (UO-31 renal) of 5.43 µM. The TGI (UO-31 renal) was 17.4 µM, the GI50 (MALME-3M melanoma) was 1.64 µM and the TGI (MALME-3M melanoma) was 3.16 µM. For the same molecule, the GI50 (IGROV1 ovarian) was 11.2 µM, the TGI (IGROV1 ovarian) was 23.3 µM and the GI50 (SF-295 CNS) was 1.84 µM. The TGI (SF-295 CNS) was 3.32 µM, the GI50 (K-562 leukemia) was 0.283 µM and the TGI (K-562 leukemia) was 1.12 µM. For the same molecule, the GI50 (SK-OV-3 ovarian) was 3.89 µM and the TGI (SK-OV-3 ovarian) was 12.3 µM.
